Eight compounds from patent US4921850A, “3-propenylcephem derivative” (Eisai Co., Ltd., priority 1986, dated 1990) can be followed below.

Converted amounts (≈) assume the structure as drawn. Where two headings read alike, the source gives them in different places.

Data set [1] relates to Proteus vulgaris E 08042. Briefly: Comparison test of anti-bacterial activity (MIC). The following applies: E08042, 18 h, comparison R1 = CH2F vs CH3. The class given is cell-based. Here is the method:
(§1) MIC (μg/ml) were determined by an agar dilution method [Chemotherapy (Japan), 29, 76-79, 1981]. Overnight cultures of the bacterial strains in Mueller-Hinton broth were diluted to final concentration of about 10^6 CFU/ml, and 5 μl of each bacterial suspension was spotted onto Mueller-Hinton agar plates that contained twofold serial dilutions of antibiotics. MICs were measured after incubation for 18 hours at 37° C.
(§2) Comparison tests of the anti-bacterial activities were conducted between the compounds of the following formula according to the present invention and the corresponding control compounds wherein R1 represents methyl group. Measurements of MIC are the same as described in the above item 2.

Data set [2] relates to Xantomonas maltophilia E 04004. Briefly: Comparison test of anti-bacterial activity (MIC). The following applies: 18 h, comparison R1 = CH2F vs CH3. It is filed as cell-based. On the procedure: as §1, §2
Data set [3] has as its system Enterobacter cloacae E-74. Briefly: Comparison test of anti-bacterial activity (MIC). The following applies: E74, 18 h, comparison R1 = CH2F vs CH3. It is filed as cell-based. On the procedure: as §1, §2
Data set [4] has as its system Staph. aureus E 31106. As to the kind of experiment: Comparison test of anti-bacterial activity (MIC). It is filed as cell-based. The following applies: Staphylococcus aureus, E31106, 18 h, comparison R1 = CH2F vs CH3. Here is the method:
as §1, §2

Data set [5] deals with Morganella morganii EP-14. Briefly: Anti-bacterial activity (MIC), agar dilution. It is filed as cell-based. Particulars: Morganella morganii, EP14, 18 h, about 10^6 CFU/ml, 37° C., read-out: MIC. Summed up:
(§3)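 Read-out is MIC (μg/ml) after 18 hours at 37° C on Mueller-Hinton agar with twofold antibiotic series. Inoculum: overnight broth cultures diluted to ~10^6 CFU/ml, spotted.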
(In general: Agar dilution tests growth on a series of plates holding different concentrations.)

The test system of data set [6] is Kleb. pneumoniae EK-6. As to the kind of experiment: Anti-bacterial activity (MIC), agar dilution. It is filed as cell-based. The following applies: Klebsiella pneumoniae, EK6, 18 h, Kleb. pneumoniae EK-6; agar dilution, about 10^6 CFU/ml, 18 hours, 37° C.; read-out: MIC. The essentials:
as §3

Data set [7] has as its system Pseud. aeruginosa EP-01. As to the kind of experiment: Anti-bacterial activity (MIC), agar dilution. The class given is cell-based. Particulars: Pseudomonas aeruginosa, EP01, 18 h, Pseud. aeruginosa EP-01; agar dilution, about 10^6 CFU/ml, 18 hours, 37° C.; read-out: MIC. Summed up: as §3
Data set [8] deals with Escher. coli NIHJ. As to the kind of experiment: Anti-bacterial activity (MIC), agar dilution. It is filed as cell-based. The following applies: Escherichia coli, 18 h, Escher. coli NIHJ; agar dilution, about 10^6 CFU/ml, 18 hours, 37° C.; read-out: MIC. The essentials:
as §3

Data set [9] deals with Staph. aureus 209-P. Briefly: Anti-bacterial activity (MIC), agar dilution. The class given is cell-based. The following applies: Staphylococcus aureus, 209P, 18 h, Staph. aureus 209-P; agar dilution, about 10^6 CFU/ml, 18 hours, 37° C.; read-out: MIC. Summed up: as §3
The test system of data set [10] is Ser. marcescens ES-75. As to the kind of experiment: Anti-bacterial activity (MIC), agar dilution. It is filed as cell-based. The following applies: Serratia marcescens, ES75, 18 h, Ser. marcescens ES-75; agar dilution, about 10^6 CFU/ml, 18 hours, 37° C.; read-out: MIC. Summed up:
as §3

The nature of data set [11]: in vivo. Particulars: read-out: values of acute toxicity. The text has this:
(1) Acute toxicity in mouse:
The compounds according to this invention dissolved in a physiological saline solution were intravenously dosed to five ICR male 6 weeks-old mouse.

Setting [12] is: intravenous, physiological saline solution, five ICR male 6 weeks-old mouse.

`CO/N=C(\C(=O)N[C@@H]1C(=O)N2C(C(=O)[O-])=C(/C=C/C[n+]3ccc(C(=O)O)cc3)CS[C@H]12)c1nsc(N)n1` [CH3 (Control) to Example 125, reference compound]: the MIC in [1] is 12.5 µg/mL (≈ 22.9 µM); in data set [2], 50 µg/mL (≈ 91.6 µM); in data set [3], 3.13 µg/mL (≈ 5.74 µM); in data set [4], 12.5 µg/mL (≈ 22.9 µM).
As to `CO/N=C(\C(=O)N[C@@H]1C(=O)N2C(C(=O)[O-])=C(/C=C/C[N+]3(C)CCCC3)CS[C@H]12)c1nsc(N)n1` [CH3 (Control) to Example 126, reference compound], the results for the MIC in data set [1], in data set [2] and in data set [3] were 1.56 µg/mL (≈ 3.07 µM), 100 µg/mL (≈ 197 µM) and 0.1 µg/mL (≈ 0.197 µM), respectively.
Turning to `CO/N=C(\C(=O)N[C@@H]1C(=O)N2C(C(=O)[O-])=C(/C=C/C[n+]3ccc(C(N)=O)cc3)CS[C@H]12)c1nsc(N)n1` [CH3 (Control) to Example 127, reference compound], the MIC in data set [1] stood at 3.13 µg/mL (≈ 5.75 µM); in [2], 50 µg/mL (≈ 91.8 µM); in data set [3], 0.4 µg/mL (≈ 0.735 µM); in [4], 6.25 µg/mL (≈ 11.5 µM).
With `CO/N=C(\C(=O)N[C@@H]1C(=O)N2C(C(=O)[O-])=C(/C=C/C[N+](C)(C)C)CS[C@H]12)c1nsc(N)n1` [CH3 (Control) to Example 128, reference compound], the MIC in data set [1] was 6.25 µg/mL (≈ 13 µM); in data set [2] it was more than 100 µg/mL; in [3], 0.2 µg/mL (≈ 0.415 µM); in data set [4] it was 6.25 µg/mL (≈ 13 µM).
As to `C[N+](C)(C/C=C/C1=C(C(=O)[O-])N2C(=O)[C@@H](NC(=O)/C(=N\OCC#N)c3nsc(N)n3)[C@H]2SC1)[C@@H](CO)C(N)=O` [Example 145, 7β-[2-(5-Amino-1,2,4-thiadiazol-3-yl)-(Z)-2-cyanomethoxyiminoacetamido]-3-[(E)-3-[(1S-carbamoyl-2-hydroxyethyl)dimethylammonio]-1-propen-1-yl]-3-cephem-4-carboxylate], the MIC in [5] came out at 0.1 µg/mL (≈ 0.173 µM); in data set [6], 0.1 µg/mL (≈ 0.173 µM); in [7], 1.56 µg/mL (≈ 2.69 µM); in data set [8] it was 0.2 µg/mL (≈ 0.345 µM); in [9], 0.4 µg/mL (≈ 0.69 µM); in [10] it was 0.1 µg/mL (≈ 0.173 µM). For the same compound, the LD50 in data set [11] (setting [12]) was more than 2000 mg/kg.
Regarding `C[N@@+]1(C/C=C/C2=C(C(=O)[O-])N3C(=O)[C@@H](NC(=O)/C(=N\OCC#N)c4nsc(N)n4)[C@H]3SC2)C[C@H](O)C[C@@H]1CO` [Example 146, 7β-[2-(5-Amino-1,2,4-thiadiazol-3-yl)-(Z)-2-cyanomethoxyiminoacetamido]-3-[(E)-3-(1-methyl-2R-hydroxymethyl-4R-hydroxy-1-pyrrolidinio)-1-propen-1-yl]-3-cephem-4-carboxylate], the MIC is 0.05 µg/mL (≈ 0.0864 µM) in [5]; 0.05 µg/mL (≈ 0.0864 µM) in [6]; 1.56 µg/mL (≈ 2.7 µM) in data set [7]; 0.1 µg/mL (≈ 0.173 µM) in data set [8]; 0.4 µg/mL (≈ 0.691 µM) in data set [9]; 0.05 µg/mL (≈ 0.0864 µM) in data set [10]. Also, the LD50 in data set [11] (mouse, iv) is more than 2000 mg/kg.
In the case of `CC(=O)C[N+](C)(C)C/C=C/C1=C(C(=O)[O-])N2C(=O)[C@@H](NC(=O)/C(=N\OCC#N)c3nsc(N)n3)[C@H]2SC1` [Example 154], the MIC in data set [5] was 0.1 µg/mL (≈ 0.182 µM); in data set [6], 0.1 µg/mL (≈ 0.182 µM); in [7], 0.8 µg/mL (≈ 1.46 µM); in [8], 0.1 µg/mL (≈ 0.182 µM); in data set [9] it was 0.4 µg/mL (≈ 0.729 µM); in data set [10], 0.1 µg/mL (≈ 0.182 µM). Further, the LD50 in [11] (setting [12]) was more than 2000 mg/kg.
In the case of `C[N+](C)(C/C=C/C1=C(C(=O)[O-])N2C(=O)[C@@H](NC(=O)/C(=N\OCC#N)c3nsc(N)n3)[C@H]2SC1)CC(N)=O` [Example 155], the MIC in data set [5] amounted to 0.1 µg/mL (≈ 0.182 µM); in [6], 0.05 µg/mL (≈ 0.091 µM); in data set [7], 1.56 µg/mL (≈ 2.84 µM); in data set [8], 0.1 µg/mL (≈ 0.182 µM); in data set [9], 0.4 µg/mL (≈ 0.728 µM); in [10] it was 0.2 µg/mL (≈ 0.364 µM). In addition, the LD50 in data set [11] (setting [12]) was more than 2000 mg/kg.

By MIC is commonly meant the smallest concentration in the dilution series that meets the test's criterion for growth inhibition.
